From patent US11980633B2, “Method for treating cancer using a combination of DNA-damaging agents and DNA-PK inhibitors” (Vertex Pharmaceuticals Incorporated, priority 2016, dated 2024)

System: pKAP1 and pH2AX levels in DU4475 breast cancer cells
Assay: pKAP1 and pH2AX immunoblot, Compound B-2 and doxorubicin in DU4475 breast cancer cells
Assay type: cell-based, human
Settings: for pH2AX level, max enhancement vs doxorubicin alone: at 12 h
Procedure: Materials and Methods. The human cancer cell lines A549 (CCL-185), DU4475 (HTB-123), MDA-MB-436 (HTB-130), and MDA-MB-468 (HTB-132) were obtained from American Type Culture Collection (ATCC; Manassas, VA). A 10 mM stock solution of Compound B-1 or Compound B-2 was prepared in DMSO and stored at −20° C. Etoposide and doxorubicin were purchased from Sigma-Aldrich (St. Louis, MO).
The A549 human lung cancer cell line was purchased from ATCC and was cultured in DMEM supplemented with 10% fetal bovine serum, 1× non-essential amino acids and 1× Penicillin/Streptomycin (complete medium). Cells were maintained at a subconfluent state by passaging every 2-3 days. Human breast cancer cells lines DU4475, MDA-MB-436, and MDA-MB-468 were purchased from ATCC and cultured in DMEM supplemented with 10% fetal bovine serum, 1× Glutamax and Penicillin/Streptomycin. Cells were maintained at a subconfluent state by passaging every 2-3 days.
Compound B-1 and Compound B-2 used in these experiments were not prepared as a co-crystals.
Breast cancer cell lines grown in 24-well (Costar, catalog #3526) or 6-well (Costar, catalog #3516) tissue culture plates to 70-80% confluence were pre-incubated with 1 μM Compound B-2 or DMSO for 15 min. Doxorubicin was added to a final concentration of either 100 nM or 500 nM from a 1000× stock prepared in DMSO. Cells were then incubated for the indicated amount of time and harvested for analysis.
Cell Lysis and Western Blot Analysis. Cells treated with Compound B-1 or Compound B-2 in combination with chemotherapeutic agents were washed once with ice-cold PBS and then dissolved in 150 μL/well 2×SDS-PAGE sample buffer, transferred to microfuge tubes, and heated in a 105° C. heat block for 5 min for immunoblotting. A 15-μL aliquot of each SDS-PAGE sample was loaded onto 12-lane 4 20% Tris-Glycine gels and the gels were run at 125v constant voltage until the dye front reached the bottom (approximately 2 h). Following electrophoresis, separated proteins in the gels were transferred to a nitrocellulose membrane. Transfer was carried out for 2 h at 1.5 A constant current in a cold room using a Hoefer transfer apparatus (Model TE42 or TE62, Hoefer Inc, Holliston, MA) according to manufacturer's instructions. Following transfer, nitrocellulose membranes were incubated with blocking buffer for 1 h at room temperature. The nitrocellulose membranes were cut and the bottom halves were incubated overnight with 2 primary antibodies, anti-pH2AX (1/1000) and anti-total H2AX (1/1000). After washing, the appropriate fluorescently labeled secondary antibodies were added to the membranes and then imaged with pH2AX on the 800 (green) channel and total H2AX on the 700 (red) channel. The top halves of the membranes were probed sequentially for pKAP1 (1/1000) on the 700 (red) channel and then probed for total KAP1 (1/1000) and GAPDH (1/2500) on the 800 (green) channel. Image acquisition was conducted using an Odyssey fluorescent imaging system (Li-Cor Biosciences; Lincoln, NE).
Compound B-2 and doxorubicin combination in breast cancer cell lines in culture. To examine the effect of DNA-PK inhibition on pKAP1 and pH2AX in vitro, DU4475 breast cancer cells were pre-incubated with 1 μM Compound B-2 for 15 min, followed by addition of 100 nM or 500 nM doxorubicin. Cells were harvested at various time points following doxorubicin addition and analyzed for levels of pKAP1 and pH2AX by immunoblotting.

Structure (SMILES): [2H]c1nc(C)nc([2H])c1-c1cc(NC[C@@H](C)c2cccc3c(C(=O)NC)ccnc23)ncn1 [Compound B-2]
- pKAP1 level, max enhancement vs doxorubicin alone (1 μM Compound B-2 + 100 nM doxorubicin, at 12-24 h): 37-42 fold
- pH2AX level, max enhancement vs doxorubicin alone (1 μM Compound B-2 + 100 nM doxorubicin): 2 fold
- pKAP1 level, max enhancement vs doxorubicin alone (1 μM Compound B-2 + 500 nM doxorubicin, at 8 h): 19 fold
- pH2AX level, max enhancement vs doxorubicin alone (1 μM Compound B-2 + 500 nM doxorubicin): 1.6 fold
